The conditions of data set [1]: cited from earlier work.
The subject of data set [2] is non-obese diabetic (NOD) mice. Conditions: LSF alone, when hyperglycemia became detectable; cited from earlier work.
In data set [3] the test system is NOD mice with spontaneous diabetes. Description: Therapy regimen of LSF and INGAP in spontaneously diabetic NOD mice maintained on insulin pellets. The class given is in vivo. Conditions: for blood glucose levels (non-fasting) at the end of treatments: FIG. 3, diabetic NOD mice, LSF 27 mg/kg/day continuous sc infusion, INGAP 500 μg qd ip; for remission rate of diabetes: FIG. 5, diabetic NOD mice observed after all therapy stopped. Here is the method:
The following example illustrates a therapy regimen (FIG. 1) involving INGAP peptide and LSF for building and preserving β-cell mass and increasing insulin production in a mammal. NOD mice were monitored for diabetes by measuring blood glucose levels. Mice were allowed to develop spontaneous diabetes, which usually occurs around the age of 18 weeks. Non-fasting blood glucose levels >250 mg/dL measured for 3 different days was considered evidence of diabetes onset. Shortly after diagnosing diabetes, the NOD mice received an insulin pellet implanted subcutaneously in order to maintain them during the treatment period of 6 to 7 weeks. The pellet provides 0.1 U/d of bovine insulin. The mice were then assigned to one of 5 treatment groups: Group 1—Normal saline via continuous subcutaneous infusion (placebo). The saline was delivered via an implantable subcutaneous osmotic mini-pump. The mice received the placebo for 4 weeks and continued on insulin for another 2 weeks. The insulin was then stopped, and the mice observed to determine if the treatment was effective. Group 2—LSF (27 mg/kg/day via continuous subcutaneous infusion) alone. The LSF was delivered via an implantable subcutaneous osmotic mini-pump. The mice received LSF for 4 weeks, continued on insulin for another 2 weeks, and then observed to determine if the treatment was effective. Group 3—INGAP (500 μg qd ip) alone. The mice received INGAP and insulin for 6 weeks, the treatment was then stopped, and the mice observed to determine if the treatment was effective. Group 4—LSF (27 mg/kg/day via continuous subcutaneous infusion) plus INGAP (500 μg qd ip) administered concomitantly. The LSF was delivered via an implantable subcutaneous osmotic mini-pump. The mice received LSF for 4 weeks and INGAP and insulin for 6 weeks. The treatments were then stopped and the mice observed to determine if the treatment was effective. Group 5—LSF (27 mg/kg/day via continuous subcutaneous infusion) for a week of pretreatment as monotherapy. Here the immune system was first treated to ‘cool it off’ so that any new islets would be growing in a less hostile environment. INGAP was then added to the treatment regimen (at 500 μg qd ip) and administered concomitantly with the LSF for an additional 5 weeks. LSF treatment was discontinued at week 6. INGAP and Insulin were continued for 1 more week until week 7. All therapy was then discontinued and the mice observed to determine if the treatment was effective. See treatment timeline depicted in FIG. 2.

Data set [4] relates to streptozotocin-induced diabetic mice. The settings on record: cited from earlier work.

Entries after “also recorded” stand apart in the source; their conditions may differ. Like-named read-outs stand apart in the source and are kept apart here. Ends that are not written are not given here.

`C[C@@H](O)CCCCn1c(=O)c2c(ncn2C)n(C)c1=O` [LSF, 1-(5-R-hydroxyhexyl)-3,7-dimethylxanthine]: in data set [1] (clinical studies, open IND on file with FDA), the “safety in clinical studies” value is “safe”. Also, the “reversal of autoimmune diabetes” value in data set [2] was “did not reverse”. Moreover, in data set [3], the “blood glucose levels (non-fasting) at the end of treatments” value is reported as “little or no effect” and the “remission rate of diabetes” value is reported as “no remission; also recorded: No mice”.
For IGLHDPSHGTLPNGS [INGAP], in data set [1] (in vivo), the “safety in clinical studies” value is listed as “safe”. In data set [3], the “blood glucose levels (non-fasting) at the end of treatments” value is recorded as “little or no effect” and the “remission rate of diabetes” value turned out to be 10%. For the same compound, the “insulin production of treated animals” value in data set [3] (FIG. 15) is recorded as “producing insulin”. Besides, the “effect on islet formation and glycemia” value in data set [4] was “restore euglycemia”.

The values above are taken from patent publication US20100331248A1, “COMPOSITIONS AND METHODS FOR TREATING DIABETES USING LISOFYLLINE AND ISLET NEOGENESIS ASSOCIATED PEPTIDE” (DIAKINE THERAPEUTICS, INC., priority 2008, published 2010).
